Each molecule was assayed against T1, human NOX4 (Homo sapiens, UniProt Q9NPH5) (assay: Amplex Red activity assay (cellular H2O2 formation in hNOX4 T-REx-293 cells)). Settings: tet-induced 24 h, extracellular H2O2 by Amplex Red, 60 min 25° C., geometric mean if determined several times.
T1 construct: The full-length human NOX4 (NM_016931.3) transcript was cloned; expressed in transfected cells
T1 sequence (Q9NPH5 1-578): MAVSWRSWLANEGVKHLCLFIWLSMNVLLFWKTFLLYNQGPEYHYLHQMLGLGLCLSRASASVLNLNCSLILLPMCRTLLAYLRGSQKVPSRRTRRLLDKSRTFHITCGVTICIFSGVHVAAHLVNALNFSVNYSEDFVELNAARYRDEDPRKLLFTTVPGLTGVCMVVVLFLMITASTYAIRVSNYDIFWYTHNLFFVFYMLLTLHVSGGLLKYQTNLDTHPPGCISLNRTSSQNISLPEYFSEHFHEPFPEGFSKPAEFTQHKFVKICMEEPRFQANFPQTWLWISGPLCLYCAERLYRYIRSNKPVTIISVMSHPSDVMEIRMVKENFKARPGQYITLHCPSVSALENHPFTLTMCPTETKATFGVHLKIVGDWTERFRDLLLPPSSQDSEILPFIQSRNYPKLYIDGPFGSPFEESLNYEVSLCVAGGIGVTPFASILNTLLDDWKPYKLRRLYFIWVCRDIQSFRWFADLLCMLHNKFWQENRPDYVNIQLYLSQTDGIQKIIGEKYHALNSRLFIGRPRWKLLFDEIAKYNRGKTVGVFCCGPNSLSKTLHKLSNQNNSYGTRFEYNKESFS
T1 sequence (P13498 1-195 partner): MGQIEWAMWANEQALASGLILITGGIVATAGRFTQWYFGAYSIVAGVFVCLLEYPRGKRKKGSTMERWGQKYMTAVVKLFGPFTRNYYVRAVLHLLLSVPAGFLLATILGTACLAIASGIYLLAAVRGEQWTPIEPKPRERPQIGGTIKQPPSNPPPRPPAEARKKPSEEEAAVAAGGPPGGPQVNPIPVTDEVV
Assay type: cell-based
Method: The nucleotide sequence and the amino acid sequence for the human NOX4 (Entrez Gene ID 50507) is known in the art and are published. The potency and efficacy of the compounds of Formula (I) are assessed for their potential to inhibit the formation of ROS in a cellular assay.
The full-length human NOX4 (NM_016931.3) transcript was cloned into the pDONR™221 vector (Life Technologies™) in order to generate, by site-specific integration according to the recommendation of the manufacturer (Life Technologies™), a recombinant pJTI™ R4 DEST CMV-TO vector containing the NOX4 coding information controlled by tetracycline (tet) responsive tet-on cytomegalovirus promoter (hNOX4 pDEST).
Modified human embryonic kidney cells overexpressing a tet receptor (Jump-In™ T-REx™ HEK293; Life Technologies™) were transfected with the NOX4-containing tet-on vector (hNOX4 pDEST) to generate a stable recombinant cell pool (hNOX4 T-REx-293). hNOX4 T-REx-293 cells were cultured in DMEM containing 4.5 g/L glucose supplemented with 10% fetal calf serum, penicillin (100 U/mL), streptomycin (100 μg/mL), geneticin (1 mg/mL), and blasticidin (5 μg/mL) at 37° C. in air with 5% CO2. Human Nox4 expression was induced with tet (1 μg/mL) for 24 h and extracellular H2O2 was quantified using the Amplex Red reagent (Life Technologies™).
Compounds were prepared as 10 mM stock solution in DMSO vehicle, then diluted in 384-well plates using DMSO followed by a transfer of the dilutions into the assay plate. As a control, diphenylene iodonium was included at a final concentration of 10 μM. Compounds were tested at 10 concentrations in the range from 50 μM highest to 100 nM lowest.
Cellular H2O2 formation was measured using the Amplex Red reagent. […] Cells were seeded into 384-well clear bottom plates at a density of 20 000 cells per well in presence or absence of compounds. […] All wells contained 1.25% of DMSO. The plates were kept at 25° C. for 60 min. The amount of produced resorufin was detected with the Synergy™ Mx microplate reader (BioTek) with excitation and emission wavelengths set to 550 nm and 600 nm, respectively. Fluorescence was measured for each well and the fluorescence at 600 nm wavelength was compared to the fluorescence of the vehicle in place of compound. Inhibitory activities of example compounds were determined by calculating the IC50 value (the concentration of compound needed to inhibit 50% of the enzyme activity). The calculated IC50 values may fluctuate depending on the daily cellular assay performance. Fluctuations of this kind are known to those skilled in the art.

Q: Which IC50 does the source give for CN1CCOc2ccc(C(=O)Nc3ccc4oc(N5CC(F)(F)C5)nc4c3)cc21 [Example 178, 4-Methyl-3,4-dihydro-2H-benzo[1,4]oxazine-6-carboxylic acid [2-(3,3-difluoro-azetidin-1-yl)-benzooxazol-5-yl]-amide] here?
A: 21800 nM

Q: With O=C(Nc1ccc2oc(N3CC(O)C3)nc2c1)c1ccc2c(c1)OCCO2 [Example 159, 2,3-Dihydro-benzo[1,4]dioxine-6-carboxylic acid [2-(3-hydroxy-azetidin-1-yl)-benzooxazol-5-yl]-amide] as the molecule, how does the IC50 read?
A: 1480 nM

Q: O=C(Nc1ccc2oc(N3CCCC(F)(F)C3)nc2c1)c1ccc2c(c1)CCCO2 [Example 150, Chroman-6-carboxylic acid [2-(3,3-difluoro-piperidin-1-yl)-benzooxazol-5-yl]-amide] was tested. Which IC50 did it give?
A: 2200 nM

Q: Which IC50 does the source give for CN1CCOc2ccc(C(=O)Nc3ccc4oc(N5CCC(F)(F)CC5)nc4c3)cc21 [Example 187, 4-Methyl-3,4-dihydro-2H-benzo[1,4]oxazine-6-carboxylic acid [2-(4,4-difluoro-piperidin-1-yl)-benzooxazol-5-yl]-amide] here?
A: 3390 nM

Q: With O=C(Nc1ccc2oc(N3CCC34CCC4)nc2c1)c1ccc2c(c1)OCCO2 [Example 161, 2,3-Dihydro-benzo[1,4]dioxine-6-carboxylic acid [2-(1-aza-spiro[3.3]hept-1-yl)-benzooxazol-5-yl]-amide] as the molecule, how does the IC50 read?
A: 665 nM

Q: With O=C(Nc1ccc2sc(N3CC4(COC4)C3)nc2c1)c1ccc2c(c1)CCO2 [Example 91, 2,3-Dihydro-benzofuran-5-carboxylic acid [2-(2-oxa-6-aza-spiro[3.3]hept-6-yl)-benzothiazol-5-yl]-amide] as the molecule, how does the IC50 read?
A: 4330 nM

Q: O=C(Nc1ccc2oc(N3CCC34COC4)nc2c1)c1ccc2c(c1)CCCO2 [Example 143, Chroman-6-carboxylic acid [2-(6-oxa-1-aza-spiro[3.3]hept-1-yl)-benzooxazol-5-yl]-amide] was tested. Which IC50 did it give?
A: 681 nM

Q: With O=C(Nc1ccc2sc(N3CCN(C4COC4)CC3)nc2c1)c1ccc2c(c1)CCO2 [Example 102, 2,3-Dihydro-benzofuran-5-carboxylic acid [2-(4-oxetan-3-yl-piperazin-1-yl)-benzothiazol-5-yl]-amide] as the molecule, how does the IC50 read?
A: 9170 nM

Q: Which IC50 does the source give for O=C(Nc1ccc2oc(N3CC(F)(F)C3)nc2c1)c1ccc2c(c1)CCCO2 [Example 141, Chroman-6-carboxylic acid [2-(3,3-difluoro-azetidin-1-yl)-benzooxazol-5-yl]-amide] here?
A: 10600 nM

Q: With CN(C)C1CCN(c2nc3cc(NC(=O)c4ccc5c(c4)CCO5)ccc3s2)CC1 [Example 97, 2,3-Dihydro-benzofuran-5-carboxylic acid [2-(4-dimethylamino-piperidin-1-yl)-benzothiazol-5-yl]-amide] as the molecule, how does the IC50 read?
A: 6300 nM

Q: CN(C)C1CCN(c2nc3cc(NC(=O)c4ccc5c(c4)CCO5)ccc3o2)CC1 [Example 14, 2,3-Dihydro-benzofuran-5-carboxylic acid [2-(4-dimethylamino-piperidin-1-yl)-benzooxazol-5-yl]-amide; compound with formic acid] was tested. Which IC50 did it give?
A: 1700 nM

Q: With O=C(Nc1ccc2oc(N3CCOCC3)nc2c1)c1ccc2c(c1)OCCO2 [Example 173, 2,3-Dihydro-benzo[1,4]dioxine-6-carboxylic acid (2-morpholin-4-yl-benzooxazol-5-yl)-amide] as the molecule, how does the IC50 read?
A: 1420 nM

Q: For O=C(Nc1ccc2oc(N3CC(N4CCOCC4)C3)nc2c1)c1ccc2c(c1)CCO2 [Example 17, 2,3-Dihydro-benzofuran-5-carboxylic acid [2-(3-morpholin-4-yl-azetidin-1-yl)-benzooxazol-5-yl]-amide], which IC50 is on record?
A: 2300 nM

Q: For CN(C)CC1CCN(c2nc3cc(NC(=O)c4ccc5c(c4)CCO5)ccc3o2)C1 (centres unmarked) [Example 60, 2,3-Dihydro-benzofuran-5-carboxylic acid [2-(3-dimethylaminomethyl-pyrrolidin-1-yl)-benzooxazol-5-yl]-amide], which IC50 is on record?
A: 1670 nM

Q: With O=C(Nc1ccc2oc(N3CCC34CCC4)nc2c1)c1ccc2c(c1)OCO2 [Example 123, Benzo[1,3]dioxole-5-carboxylic acid [2-(1-aza-spiro[3.3]hept-1-yl)-benzooxazol-5-yl]-amide] as the molecule, how does the IC50 read?
A: 434 nM

Q: For CN(c1nc2cc(NC(=O)c3ccc4c(c3)CCO4)ccc2o1)C1(C)COC1 [Example 18, 2,3-Dihydro-benzofuran-5-carboxylic acid {2-[methyl-(3-methyl-oxetan-3-yl)-amino]-benzooxazol-5-yl}-amide], which IC50 is on record?
A: 568 nM

Q: O=C(Nc1ccc2oc(N3CCC4(COC4)C3)nc2c1)c1ccc2c(c1)CCO2 [Example 22, 2,3-Dihydro-benzofuran-5-carboxylic acid [2-(2-oxa-6-aza-spiro[3.4]oct-6-yl)-benzooxazol-5-yl]-amide] was tested. Which IC50 did it give?
A: 505 nM

Q: For O=C(Nc1ccc2c(c1)OCCO2)c1ccc2sc(N3CCC(F)(F)CC3)nc2c1 [Example 204, 2-(4,4-Difluoro-piperidin-1-yl)-benzothiazole-5-carboxylic acid (2,3-dihydro-benzo[1,4]dioxin-6-yl)-amide], which IC50 is on record?
A: 25500 nM

Q: Which IC50 does the source give for O=C(Nc1ccc2sc(N3CCC4(CC3)COC4)nc2c1)c1ccc2c(c1)CCO2 [Example 99, 2,3-Dihydro-benzofuran-5-carboxylic acid [2-(2-oxa-7-aza-spiro[3.5]non-7-yl)-benzothiazol-5-yl]-amide] here?
A: 3080 nM

Q: Which IC50 does the source give for CN1CCOc2ccc(C(=O)Nc3ccc4oc(N5CC(O)C5)nc4c3)cc21 [Example 177, 4-Methyl-3,4-dihydro-2H-benzo[1,4]oxazine-6-carboxylic acid [2-(3-hydroxy-azetidin-1-yl)-benzooxazol-5-yl]-amide] here?
A: 6870 nM

Q: For O=C(Nc1ccc2sc(N3CCC[C@@H](O)C3)nc2c1)c1ccc2c(c1)CCO2 [Example 116, 2,3-Dihydro-benzofuran-5-carboxylic acid [2-((R)-3-hydroxy-piperidin-1-yl)-benzothiazol-5-yl]-amide], which IC50 is on record?
A: 2170 nM

Q: How did the IC50 turn out when O=C(Nc1ccc2oc(N3CCC34COC4)nc2c1)c1ccc2c(c1)OCCO2 [Example 160, 2,3-Dihydro-benzo[1,4]dioxine-6-carboxylic acid [2-(6-oxa-1-aza-spiro[3.3]hept-1-yl)-benzooxazol-5-yl]-amide] was run?
A: 541 nM

Q: How did the IC50 turn out when O=C(Nc1ccc2oc(N3CCC34COC4)nc2c1)c1ccc2c(c1)OCO2 [Example 124, Benzo[1,3]dioxole-5-carboxylic acid [2-(6-oxa-1-aza-spiro[3.3]hept-1-yl)-benzooxazol-5-yl]-amide] was run?
A: 414 nM

Q: With O=C(Nc1ccc2oc(N3CCOCC3)nc2c1)c1ccc2c(c1)CCO2 [Example 5, 2,3-Dihydro-benzofuran-5-carboxylic acid (2-morpholin-4-yl-benzooxazol-5-yl)-amide] as the molecule, how does the IC50 read?
A: 627 nM

Q: For CN1CCOc2ccc(C(=O)Nc3ccc4oc(N(C5CC5)C5COC5)nc4c3)cc21 [Example 195, 4-Methyl-3,4-dihydro-2H-benzo[1,4]oxazine-6-carboxylic acid [2-(cyclopropyl-oxetan-3-yl-amino)-benzooxazol-5-yl]-amide], which IC50 is on record?
A: 4440 nM

Q: For O=C(Nc1ccc2oc(N3CCC4(CC3)COC4)nc2c1)c1ccc2c(c1)OCCO2 [Example 172, 2,3-Dihydro-benzo[1,4]dioxine-6-carboxylic acid [2-(2-oxa-7-aza-spiro[3.5]non-7-yl)-benzooxazol-5-yl]-amide], which IC50 is on record?
A: 8850 nM
